The record followed here is patent US8507506B2, “Theophylline derivative inhibits osteoporosis” (Kaohsiung Medical University, priority 2011, dated 2013).

What all share (type): cell-based
For assay [1], the system named is c-Fos mRNA in RAW264.7 cells. Briefly: RT-PCR, RANKL-induced mRNA expression of c-Fos. To be noted: for RANKL-induced mRNA expression level of c-Fos: RAW264.7 cells, 24 hours, CTL 100%, mean ± SEM. From the text: The culture medium was discarded. […] [table] f) Running • A.
Another assay has as its system osteoclast-like cells. Kind of assay: Pit formation assay (dissolution of osteoclast-like cells). To be noted: calcium phosphate coated plates, 10 ng/ml RANKL for five days, different concentrations, FIG. 5. How it is done:
In order to confirm the influence of KMUP-1 to the bone dissolution of differentiated osteoclast-like cells, cells are cultured in the plates which are coated calcium phosphate of bone-like matrix in the bottom and are given 10 ng/ml RANKL for five days and different concentration of KMUP-1. According to the result, compared with the control group, in the group which is given 10 ng/ml RANKL alone for 5 days, the osteoclast-like cells have obviously dissolution activity, so the covers at the plate bottom present many holes. […] Subsequently, 100 μl medium with 1,000 cells were added into each well, and the total volume was 300 μl/well. The slides were incubated for 5 days, and the medium and the drugs were renewed every 2 days. After 5 days, the medium was removed, and the cells were washed by ddH2O 3 times. Subsequently, the cells were covered by Bleach solution for staining 5 minutes and then were washed by ddH2O for 5 times. After drying, the cells were took a photo by an optical microscopy (40× and 200×), and Autopano Pro V1.4.2, Kolor, Paris, was used to proceed the pictures taken in 40×.

Assay [2] relates to osteoclast-like cells, OCL. Kind of assay: Intracellular calcium (fura-2/AM), RANKL-induced calcium influx. To be noted: 1 μM and 10 μM, FIGS. 14 and 15. In general terms: Calcium assays in cells follow changes in intracellular calcium, usually with a dye or a luminescent sensor.
In another assay the test system is HMGB1 in RAW264.7 cells. Briefly: Western blot, RANKL-induced transfer of HMGB1 from nucleus to extracellular space. Conditions: 5 μM, 7.5 μM and 10 μM for 24 hours, 10 ng/ml RANKL 18 hours, dose dependent, FIGS. 22(B), 23(B), 24(B). The method, then: HMGB1 can affect the proliferation and differentiation of osteoclasts, the HMGB1 which originally exists in a cell nuclear is stimulated by RANKL to transfer to cytoplasm or extracellular space, and the HMGB1 in the extracellular space like pro-inflammatory cytokines can regulate the proliferation and differentiation of osteoclasts via RANK/RANKL pathway or other pathways. 10 ng/ml RANKL is used to stimulate RAW264.7 cells, and the extracellular medium, cytoplasm and nucleus are separated at 0 hours, 6 hours, 12 hours, 18 hours and 24 hours, and then via western blot to confirm the expression level of the HMGB1. After stimulating 24 hours, the HMGB1 obviously transfers to the extracellular space from the nucleus and the cytoplasm (FIGS. 22(A), 23(A), and 24(A)). Moreover, when it is stimulated by RANKL for 18 hours, the effect of transferring to the extracellular space and the cytoplasm is most obvious. Different concentrations of KMUP-1 are administrated for 24 hours, and 10 ng/ml RANKL is used to stimulate for 18 hours. […] Nuclear proteins were extracted according to the instructions of NE-PER kit. 2.5×10^6 cells were plated per well in 24-well plates. […] Subsequently, the cells were added by 5.5 μ[…] and shaken for 5 seconds and then put on ice for 1 minute. After that, the cells were shaken again for 5 seconds and centrifuged (10,000 rpm, 4° C., 5 minutes). […]
A general note: In western blotting, separated proteins are transferred to a membrane and probed.

Marks after values point to notes of the source that are not given here.

For the compound `Cn1c(=O)c2c(ncn2CCN2CCN(c3ccccc3Cl)CC2)n(C)c1=O` [KMUP-1, 7-[2-[4-(2-Chlorophenyl)piperazin-1-yl]ethyl] theophylline], the “effect on mRNA expression of c-Fos induced by RANKL (in words)” value in assay [1] (10 ng/ml RANKL, summary of Table 1) is “inhibits the mRNA expression”. Moreover, the “RANKL-induced mRNA expression level of c-Fos” value is 105.4 ± 8.1% in assay [1] (RANKL 10 ng/ml + KMUP-1 1 μM); 100.3 ± 4.7% in assay [1] (RANKL 10 ng/ml + KMUP-1 2.5 μM); 84.5 ± 5.2% ^b in assay [1] (RANKL 10 ng/ml + KMUP-1 5 μM); 67.1 ± 4.5% ^b in assay [1] (RANKL 10 ng/ml + KMUP-1 7.5 μM); 73.1 ± 6.3% ^b in assay [1] (RANKL 10 ng/ml + KMUP-1 10 μM). In addition, the “dissolution of osteoclast-like cells (dissolution area)” value with osteoclast-like cells is “can inhibit the dissolution of osetocalst-like cells”. Moreover, in assay [2], the “RANKL-induced extracellular calcium influx” value is given as “can inhibit it”. Moreover, the “RANKL-induced transfer of HMGB1 to extracellular space from cell nucleus” value in the assay with HMGB1 in RAW264.7 cells is “can inhibit that RANKL induces HMGB1 to transfer to extracellular space from a cell nuclear”.
